This is an account of results in patent US11446267B2, “Nanoparticle compositions, methods of fabrication, and use for drug delivery” (DIGNITY HEALTH, priority 2017, dated 2022).

SMILES strings stand for the structures.

For one series, the system named is ALS patients. To be noted: subset of ALS patients, phase III study; cited from earlier work.
For series [1] the following is noted: chronic administration; cited from earlier work.
A further series relates to primary motor neurons. Particulars: oxidative injury and excitotoxicity; cited from earlier work.
A further series deals with T1, RARα (Homo sapiens, UniProt P10276).
T1 sequence (P10276 1-462): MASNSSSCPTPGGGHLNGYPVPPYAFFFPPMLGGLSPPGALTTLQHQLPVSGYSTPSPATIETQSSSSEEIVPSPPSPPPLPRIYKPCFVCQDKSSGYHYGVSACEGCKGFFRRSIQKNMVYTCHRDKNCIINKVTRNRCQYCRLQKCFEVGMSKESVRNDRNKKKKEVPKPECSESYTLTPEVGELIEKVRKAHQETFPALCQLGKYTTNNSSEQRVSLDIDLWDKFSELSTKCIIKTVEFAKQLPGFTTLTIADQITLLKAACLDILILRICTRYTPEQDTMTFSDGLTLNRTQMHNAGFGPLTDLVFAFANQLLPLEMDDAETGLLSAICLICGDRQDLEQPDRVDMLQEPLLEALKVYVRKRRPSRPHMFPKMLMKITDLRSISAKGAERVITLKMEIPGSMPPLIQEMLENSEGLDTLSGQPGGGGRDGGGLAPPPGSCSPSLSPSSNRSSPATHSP
Particulars: cited from earlier work.

The conditions of series [2]: in vivo; cited from earlier work.
A further series concerns MAPK signaling. Put plainly: MAPK signaling after direct injection into the striatum. Format: in vivo. Particulars: injected directly into the striatum of healthy mice.
For series [3] the following is noted: cited from earlier work.
Another series relates to RXRs. To be noted: cited from earlier work.
The next series addresses T2, RARβ (Homo sapiens, UniProt P10826).
T2 sequence (P10826 1-455): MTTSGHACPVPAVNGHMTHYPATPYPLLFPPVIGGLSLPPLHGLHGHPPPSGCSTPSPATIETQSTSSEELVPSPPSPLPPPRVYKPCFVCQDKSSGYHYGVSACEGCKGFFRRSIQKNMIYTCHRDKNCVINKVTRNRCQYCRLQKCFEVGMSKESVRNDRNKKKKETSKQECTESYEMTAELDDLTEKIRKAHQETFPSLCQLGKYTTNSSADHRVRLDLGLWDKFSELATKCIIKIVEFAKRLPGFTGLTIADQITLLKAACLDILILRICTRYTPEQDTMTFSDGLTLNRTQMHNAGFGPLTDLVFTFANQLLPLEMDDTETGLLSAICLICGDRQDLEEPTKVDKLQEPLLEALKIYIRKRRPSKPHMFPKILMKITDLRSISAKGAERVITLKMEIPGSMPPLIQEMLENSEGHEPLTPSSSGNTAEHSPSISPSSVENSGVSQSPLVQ
Particulars: cited from earlier work.

Broadly, the AC50 is the midpoint of the concentration-response curve, whichever way the signal moves.

In the case of `CC1=NN(c2ccccc2)C(=O)C1` [Edaravone], the disease progression entry in the series with ALS patients is reported as “reduce disease progression”.

For the compound `C=C(c1ccc(C(=O)O)cc1)c1cc2c(cc1C)C(C)(C)CCC2(C)C` [bexarotene], the “motor impairments, lifespan, neuroprotection” value in series [1] is “reduced motor impairments, increased lifespan and was neuroprotective”.

In the case of `COc1ccc(-c2ccc3cc(C(=O)O)ccc3c2)cc1C12CC3CC(CC(C3)C1)C2` [Adapalene], the cell death entry in the series with primary motor neurons was “reduced cell death”. For the same compound, the concentration at half-maximal activity (AC50) is 9.2 nM on RARα and 2.2 nM on RARβ. Besides, the “clearance from the plasma” value in series [2] was “rapidly cleared from the plasma”. The “activation of MAPK signaling” value with MAPK signaling is given as “equivalently activated MAPK signaling”. Further, in [3], the solubility in water entry was “less than 1 μg/ml”. In the series on RXRs, the “interaction with RXRs” value is given as “does not interact”.
